Experimental data from patent publication US20100273801A1, “BETULIN DERIVED COMPOUNDS USEFUL AS ANTIBACTERIAL AGENTS” (Valition teknillinen tutikimuskeskus, priority 2006, published 2010).
Structures can show the parent of a compound that is named as a salt. Where two headings read alike, the source gives them in different places.

How the values were obtained:
Staphylococcus aureus = assay: turbidometric bacterial growth inhibition on a 96 well plate; conditions: for percent growth inhibition S. aureus 4 h / percent growth inhibition S. aureus 24 h: compound 1 mg/ml; for inhibition at 1000 µg/mL / inhibition at 0.1 µg/mL / inhibition at 1 µg/mL: Staphylococcus aureus
Description: (§1) The antimicrobial efficiency of betulin derived compounds against Staphylococcus aureus, Staphylococcus epidemidis, Micrococcus luteus and Bacillus subtilis was studied using a turbidometric method on a 96 well plate.
(§2) After juvenescence, suspension cultivation was prepared from the bacterial strains in the Todd-Hewitt broth. The suspension was introduced with a pipette to a 96 well plate, followed by the addition of the compound to be tested (3 parallel tests for each compound). […] Erythromycin was used as the control. Bacterial growth was monitored by measuring the absorbances of the samples at 620 nm at 0, 1, 2, 3, 4 and 24 hours. The sample plate was incubated at 37° C. in a shaker (250 rpm) between the measurements. Effects of the compounds on bacterial growth were evaluated by comparison of the growths of exposed and unexposed samples.

S. epidermidis = assay: as above; conditions: for percent growth inhibition S. epidermidis 4 h / percent growth inhibition S. epidermidis 24 h: compound 1 mg/ml; for inhibition at 1000 µg/mL / inhibition at 0.1 µg/mL / inhibition at 1 µg/mL: Staphylococcus epidermidis
Description: as §1, §2

Micrococcus luteus = assay: as above; conditions: for percent growth inhibition M. luteus 4 h / percent growth inhibition M. luteus 24 h: compound 1 mg/ml; for inhibition at 1000 µg/mL / inhibition at 0.1 µg/mL / inhibition at 1 µg/mL: Micrococcus luteus
Description: as §1, §2

Bacillus subtilis = assay: as above; conditions: for percent growth inhibition B. subtilis 4 h / percent growth inhibition B. subtilis 24 h: compound 1 mg/ml; for inhibition at 1000 µg/mL / inhibition at 0.1 µg/mL / inhibition at 1 µg/mL: Bacillus subtilis
Description: as §1, §2

bacteria = assay: antibacterial activity of compounds derived from betulin (summary statement); format: cell-based; conditions: already at a concentration of 1 μg/ml
Description: Erythromycin was used as the control.

[1] = 4 h, read-out: percent growth inhibition S. aureus 4 h
[2] = 24 h, read-out: percent growth inhibition S. aureus 24 h
[3] = 4 h, read-out: percent growth inhibition S. epidermidis 4 h
[4] = 24 h, read-out: percent growth inhibition S. epidermidis 24 h
[5] = 4 h, read-out: percent growth inhibition M. luteus 4 h
[6] = 24 h, read-out: percent growth inhibition M. luteus 24 h
[7] = 4 h, read-out: percent growth inhibition B. subtilis 4 h
[8] = 24 h, read-out: percent growth inhibition B. subtilis 24 h

Molecule	percent growth inhibition S. aureus 4 h (Staphylococcus aureus; 4 h)	percent growth inhibition S. aureus 24 h (Staphylococcus aureus; 24 h)	percent growth inhibition S. epidermidis 4 h (S. epidermidis; 4 h)	percent growth inhibition S. epidermidis 24 h (S. epidermidis; 24 h)	percent growth inhibition M. luteus 4 h (Micrococcus luteus; 4 h)	percent growth inhibition M. luteus 24 h (Micrococcus luteus; 24 h)	percent growth inhibition B. subtilis 4 h (Bacillus subtilis; 4 h)	percent growth inhibition B. subtilis 24 h (Bacillus subtilis; 24 h)	further results
3,28-C18-dialkenylsuccinic acid diester of betulin [Compound 20]	0.0%	0.0%	0.0%	0.0%	0.0%	12.6%	0.0%	9.0%	–
3,28-diisostearic acid ester of betulin [Compound 1]	2.1%	0.0%	0.0%	0.0%	8.8%	7.6%	0.0%	8.9%	–
3,28-octanedioic acid ester of betulin [Compound 10]	0.0%	0.0%	0.0%	1.7%	0.0%	2.7%	0.0%	2.6%	–
28-C18-alkenylsuccinic acid diester of betulin [Compound 21]	0.0%	0.0%	0.0%	0.0%	0.0%	10.1%	0.0%	6.9%	–
C=C(C)[C@@H]1CC[C@]2(C(=O)O)CC[C@]3(C)[C@H](CC[C@@H]4[C@@]5(C)CCC(=O)C(C)(C)[C@@H]5CC[C@]43C)[C@@H]12 [Compound 5, betulonic acid]	51.6%	0.0%	52.7%	0.0%	91.3%	0.0%	102.3%	0.0%	antibacterial activity (bacteria): considerable antibacterial activity
C=C(C)[C@@H]1CC[C@]2(C(=O)NC(CC(=O)OC)C(=O)OC)CC[C@]3(C)C(CCC4[C@@]5(C)CCC(=O)C(C)(C)C5CC[C@]43C)C12 (stereo partly shown) [Compound 8, 28-aspartate dimethylesteramide of betulonic acid]	–	–	–	–	–	–	–	–	inhibition at 1000 µg/mL (Staphylococcus aureus; [1]): 0%; inhibition at 1000 µg/mL (Staphylococcus aureus; [2]): 0%; inhibition at 1000 µg/mL (S. epidermidis; [3]): 0%; inhibition at 1000 µg/mL (S. epidermidis; [4]): 0%; inhibition at 1000 µg/mL (Micrococcus luteus; [5]): 0%; inhibition at 1000 µg/mL (Micrococcus luteus; [6]): 0%; inhibition at 1000 µg/mL (Bacillus subtilis; [7]): 0%; inhibition at 1000 µg/mL (Bacillus subtilis; [8]): 5.8%
C=C(C)[C@@H]1CC[C@]2(COC(=O)COc3cc(C(C)C)ccc3C)CC[C@]3(C)[C@H](CC[C@@H]4[C@@]5(C)CC[C@H](O)C(C)(C)[C@@H]5CC[C@]43C)[C@@H]12 [Compound 23, 28-carvacrolacetic acid ester of betulin]	9.9%	11.1%	6.8%	0.0%	0.0%	0.1%	0.7%	7.3%	–
C=C(C)[C@@H]1CC[C@]2(COS(C)(=O)=O)CC[C@]3(C)[C@H](CC[C@@H]4[C@@]5(C)CC[C@H](OC(C)=O)C(C)(C)[C@@H]5CC[C@]43C)[C@@H]12 [Compound 25, betulin 3-acetate-28 mesylate]	6.9%	0.0%	3.2%	12.7%	1.6%	12.4%	0.0%	15.2%	–
C=C(C)[C@@H]1CC[C@]2(COC(=O)c3ccccc3NC(C)=O)CC[C@]3(C)C(CCC4[C@@]5(C)CC[C@H](O)C(C)(C)C5CC[C@]43C)C12 (stereo partly shown) [Compound 29, 28-N-acetylanthranilic acid ester of betulin]	102.6%	103.4%	66.6%	20.2%	89.9%	60.5%	100.8%	54.6%	antibacterial activity (bacteria): considerable antibacterial activity
C=C(C)C1CCC2(COC(=O)C=Cc3ccccc3)CCC3(C)C(CCC4C5(C)CCC(O)C(C)(C)C5CCC43C)C12 (stereo not shown) [Compound 30, 28-cinnamic acid ester of betulin]	13.0%	0.0%	8.5%	0.0%	0.0%	0.0%	5.9%	11.1%	–
CC[C@H]1OC(=O)[C@H](C)[C@@H](O[C@H]2C[C@@](C)(OC)[C@@H](O)[C@H](C)O2)[C@H](C)[C@@H](O[C@@H]2O[C@H](C)C[C@H](N(C)C)[C@H]2O)[C@](C)(O)C[C@@H](C)C(=O)[C@H](C)[C@@H](O)[C@]1(C)O [Compound 31, erythromycin, reference compound]	–	–	–	–	–	–	–	–	inhibition at 0.1 µg/mL (Staphylococcus aureus; [1]): 53.6%; inhibition at 1 µg/mL (Staphylococcus aureus; [1]): 79.8%; inhibition at 0.1 µg/mL (Staphylococcus aureus; [2]): 11.7%; inhibition at 1 µg/mL (Staphylococcus aureus; [2]): 72.1%; inhibition at 0.1 µg/mL (S. epidermidis; [3]): 100%; inhibition at 1 µg/mL (S. epidermidis; [3]): 100%; inhibition at 0.1 µg/mL (S. epidermidis; [4]): 90.8%; inhibition at 1 µg/mL (S. epidermidis; [4]): 100%; inhibition at 0.1 µg/mL (Micrococcus luteus; [5]): 96.1%; inhibition at 1 µg/mL (Micrococcus luteus; [5]): 100%; inhibition at 0.1 µg/mL (Micrococcus luteus; [6]): 100%; inhibition at 1 µg/mL (Micrococcus luteus; [6]): 100%; inhibition at 0.1 µg/mL (Bacillus subtilis; [7]): 95.6%; inhibition at 1 µg/mL (Bacillus subtilis; [7]): 100%; inhibition at 0.1 µg/mL (Bacillus subtilis; [8]): 100%; inhibition at 1 µg/mL (Bacillus subtilis; [8]): 100%
betulin 3,28-diacetate-18-19-diene [Compound 6]	0.0%	0.0%	0.0%	0.0%	0.0%	1.5%	0.0%	3.7%	–
